Where two headings read alike, the source gives them in different places.
Columns and labels:
[1] = tested on: HCV replicon (genotype 1b) in Huh7 cell line ET; assay: microbe, parasite or virus in culture; type: cell-based, HCV genotype 1b
[2] = tested on: Huh-7 ET, Molt-4, DU-145, Hep-G2 and SH-SY5Y cells; assay: [3H]Thymidine incorporation assay (cell toxicity); conditions: read-out: [3H]Thymidine CC50; [3H]thymidine incorporation, cell toxicity; mean value class; cell line not given
[3] = tested on: HCV sub-genomic replicon of genotype 1a in replicon cell line W11.8; assay: microbe, parasite or virus in culture; type: cell-based, HCV genotype 1a
Source text: This procedure below describes the HCV replicon assay using a Huh7 hepatoma cell line harboring a highly cell culture-adapted replicon (genotype 1b) (hereafter named cell line ET). The ET cells contained the highly cell culture-adapted replicon I389luc-ubi-neo/NS3-3′/5.1 construct that carried, in addition to the neomycin gene, an integrated copy to the firefly luciferase gene (Krieger, N; Lohmann, V; Bartenschlager, R. Enhancement of hepatitis C virus RNA replication by cell culture-adaptive mutations. J. Virol. 2001, 75, 4614-4624). A replicon cell line W11.8, containing the 1a genotype of HCV was also used. These two cell lines (genotype 1b and 1a) allowed measurement of RNA replication and translation by measuring luciferase activity (against genotype 1b) or by measuring the NS5A level using the ELISA assay (against genotype 1a). […] ET cell lines were maintained in cultures at a sub-confluent level (<85%). The culture media used for cell passaging consisted of DMEM (Gibco BRL Laboratories, Mississauga, ON, Canada) supplemented with 10% fetal bovine serum with 1% penicilin/streptomycin, 1% glutamine, 1% sodium pyruvate, 1% non-essential amino acids, and 180 µg/ml of G418 final concentration.
Replicon cell lines W11.8 containing a sub-genomic replicon of genotype 1a was used for the HCV Replicon Cell-Based detection using the ELISA. The RNA replication in presence of different drug concentrations was indirectly measured in these cell lines by the level of NS5A protein content upon drug treatment for four days. The NS5A is a non-structural protein of HCV and is used as marker of HCV replication in this assay.
For the treatment of the cells with the testing drug, Culture medium was removed from the 175 cm^2 T-flask by aspiration. Cell monolayer was rinsed with 10-20 mL of PBS 1× at room temperature. PBS was removed by aspiration. Cells were trypsinized using 3 mL of Trypsin (0.25%)/EDTA (0.1%) solution. Flasks were incubated at 37° C. (incubator) for 7 minutes. Complete medium (9 mL) without G418 is then added. Cell clumps were disrupted by pipetting up and down several times.
The cell suspension was then transferred to a 50 mL Falcon polypropylene tube. Cells were then counted several times using the haemocytometer. Cells were diluted at 50,000 cells/mL with complete DMEM without G418, then transferred into a sterile reservoir. Using a multichannel pipet, approximately 5,000 viable cells (100 μL) were plated per well in a white opaque 96-well microtiter plate. After an incubation period of 2-4 hours at 37° C. in a 5% CO2 incubator, compounds were added at various concentrations.
Drugs were resuspended in DMSO at a stock concentration of 100 mM or 10 mM. […] Then, drugs were diluted at twice the final concentration in the same medium (without G418) described earlier, in sterile 96-deep well plate and according to a particular template (see Appendix). One volume (100 μL) of each drug dilution was then added to each well that contains cells.
Sixteen wells were used as control (0% inhibition) without drug. Eight wells were used as background control (100% inhibition) containing 2 μM (final concentration) of the reference compound. […] Values from 100% inhibited wells were averaged and used as the background value. Cells are further incubated for 4 days at 37° C. in a 5% CO2 incubator.
For the measurement of NS5A protein content, following the incubation time of four days, the media was throwed into an appropriate waste container by inverting the plate. Any residual liquid was removed by tapping gently on absorbent paper several times. The plates were then washed once with 150 μL of PBS per well, and then incubated for 5 minutes at room temperature on a shaker (500 rpm).

[4] = [3H]Thymidine incorporation assay (cell toxicity); conditions: human
[5] = read-out: HCV-Replicon-(Luci-ET) 1b_IC50
[6] = Hepatitis C virus, W11.8, 96 h, read-out: HCV-Replicon-ELISA-1a IC50
[7] = Hepatitis C virus, Huh-7, 96 h, read-out: HCV-Replicon (Luci-ET)-1b_IC50
[8] = Hepatitis C virus, W11.8, read-out: HCV-Replicon-ELISA-1a IC50
[9] = Hepatitis C virus, Huh-7, read-out: HCV-Replicon-(Luci-ET) 1b_IC50

CC(C)C#Cc1cc(N(CC(=O)N2CC3(COC3)C2)C(=O)C2CCC(C)CC2)c(C(=O)O)s1 (centres unmarked) [Compound 71]
IC50 [1, 5]: < 100 nM | CC50 [2]: > 100000 nM

COC(C)C(C(=O)N(C)C)N(C(=O)C1CCC(C)CC1)c1cc(C#CC(C)(C)C)sc1C(=O)O (centres unmarked) [Compound 75]
IC50 [1, 5]: < 100 nM | CC50 [2]: 10000 to 100000 nM

CO[C@H](C)[C@@H](C(=O)N(C)C)N(c1cc(C#CC(C)(C)C)sc1C(=O)O)C(=O)[C@H]1CC[C@H](C)CC1 [Compound 57]
IC50 [1, 5]: < 100 nM | CC50 [2]: > 100000 nM

COCCN1CC[C@H](N(c2cc(C#CC(C)(C)C)sc2C(=O)O)C(=O)[C@H]2CC[C@H](C)CC2)C1=O [Compound 133, 5-(3,3-Dimethylbut-1-ynyl)-3-[[(3S)-1-(2-methoxyethyl)-2-oxo-pyrrolidin-3-yl]-(trans-4-methylcyclohexanecarbonyl)amino]thiophene-2-carboxylic acid]
IC50 [3, 6]: < 100 nM | IC50 [1, 7]: < 100 nM | CC50 at 72 h [4]: > 100000 nM

CC1CCC(C(=O)N(c2cc(C#CC(C)(C)C)sc2C(=O)O)C2CCN(C)C2=O)CC1 (centres unmarked) [Compound 83]
IC50 [3, 8]: < 100 nM | IC50 [1, 9]: < 100 nM | CC50 at 72 h [4]: > 100000 nM

CC1CCC(C(=O)N(c2cc(C#CC(C)(C)C)sc2C(=O)O)[C@H]2CCCCN(C)C2=O)CC1 (stereo partly drawn) [Compound 95, 5-(3,3-dimethylbut-1-yn-1-yl)-3-(4-methyl-N—((S)-1-methyl-2-oxoazepan-3-yl)cyclohexanecarboxamido)thiophene-2-carboxylic acid]
IC50 [3, 8]: < 100 nM | IC50 [1, 9]: < 100 nM | CC50 at 72 h [4]: 10000 to 100000 nM

CC(C)CC#Cc1cc(N(CC(=O)N2CCOCC2)C(=O)[C@H]2CC[C@H](C)CC2)c(C(=O)O)s1 [Compound 130, 3-[(trans-4-methylcyclohexanecarbonyl)-(2-morpholino-2-oxo-ethyl)amino]-5-(4-methylpent-1-ynyl)thiophene-2-carboxylic acid]
IC50 [3, 6]: 100 to 1000 nM | IC50 [1, 7]: 100 to 1000 nM | CC50 at 72 h [4]: > 100000 nM

CC[C@@H](C(=O)N1CCOCC1)N(c1cc(C#CC(C)(C)C)sc1C(=O)O)C(=O)[C@H]1CC[C@H](C)CC1 [Compound 12]
IC50 [3, 8]: < 100 nM | IC50 [1, 9]: < 100 nM | CC50 at 72 h [4]: 10000 to 100000 nM

CN1CCOC[C@H](N(c2cc(C#CC(C)(C)C)sc2C(=O)O)C(=O)[C@H]2CC[C@H](C)CC2)C1=O [Compound 136, (S)-5-(3,3-Dimethylbut-1-ynyl)-3-[(trans)-4-methyl-N-(4-methyl-5-oxo-1,4-oxazepan-6-yl)cyclohexanecarboxamido]thiophene-2-carboxylic acid]
IC50 [3, 6]: < 100 nM | IC50 [1, 7]: < 100 nM | CC50 at 72 h [4]: > 100000 nM

COC(C)C(C(=O)N1CCOCC1)N(C(=O)C1CCC(C)CC1)c1cc(C#CC(C)(C)C)sc1C(=O)O (centres unmarked) [Compound 65]
IC50 [1, 5]: < 100 nM | CC50 [2]: > 100000 nM

CC[C@@H](C(=O)N1CCN(C)CC1)N(c1cc(C#CC(C)(C)C)sc1C(=O)O)C(=O)[C@H]1CC[C@H](C)CC1 [Compound 82]
IC50 ([3]; read-out: HCV-Replicon-ELISA-1a IC50): < 100 nM | IC50 [1, 5]: < 100 nM | CC50 [2]: > 100000 nM

C[C@@H](C(=O)N(C)C)N(c1cc(C#CC(C)(C)C)sc1C(=O)O)C(=O)[C@H]1CC[C@H](C)CC1 [Compound 3, 5-(3,3-Dimethyl-but-1-ynyl)-3-[((S)-1-dimethylcarbamoyl-ethyl)-(trans-4-methyl-cyclohexanecarbonyl)-amino]-thiophene-2-carboxylic acid]
IC50 [3, 8]: < 100 nM | IC50 [1, 9]: < 100 nM | CC50 at 72 h [4]: > 100000 nM

CCC[C@@H](C(=O)N1CCOCC1)N(C(=O)C1CCC(C)CC1)c1cc(C#CC(C)(C)C)sc1C(=O)O (some centres unmarked) [Compound 64]
IC50 [3, 8]: < 100 nM | IC50 [1, 9]: < 100 nM | CC50 at 72 h [4]: 10000 to 100000 nM

CCN1CCC[C@H](N(c2cc(C#CC(C)(C)C)sc2C(=O)O)C(=O)[C@H]2CC[C@H](C)CC2)C1=O [Compound 148, (S)-5-(3,3-Dimethylbut-1-ynyl)-3-((trans)-4-methyl-N-(1-ethyl-2-oxopiperidin-3-yl)cyclohexanecarboxamido)thiophene-2-carboxylic acid]
IC50 [3, 6]: < 100 nM | IC50 [1, 7]: < 100 nM | CC50 at 72 h [4]: > 100000 nM

CC(C)(C)C#Cc1cc(N(CC(=O)N2CCOCC2)C(=O)[C@H]2CC[C@H](C)CC2)c(C(=O)O)s1 [Compound 14]
IC50 [3, 8]: < 100 nM | IC50 [1, 9]: < 100 nM | CC50 at 72 h [4]: > 100000 nM

COCCN1CCCC[C@H](N(c2cc(C#CC(C)(C)C)sc2C(=O)O)C(=O)[C@H]2CC[C@H](C)CC2)C1=O [Compound 138, (S)-5-(3,3-Dimethylbut-1-ynyl)-3-((trans)-4-methyl-N-(1-(2-methoxyethyl)-2-oxoazepan-3-yl)cyclohexanecarboxamido)thiophene-2-carboxylic acid]
IC50 [3, 6]: < 100 nM | IC50 [1, 7]: < 100 nM | CC50 at 72 h [4]: > 100000 nM

CC(C)N1CC[C@H](N(c2cc(C#CC(C)(C)C)sc2C(=O)O)C(=O)[C@H]2CC[C@H](C)CC2)C1=O [Compound 142, 5-(3,3-dimethylbut-1-ynyl)-3-[[(3S)-1-isopropyl-2-oxo-pyrrolidin-3-yl]-(trans-4-methylcyclohexanecarbonyl)amino]thiophene-2-carboxylic acid]
IC50 [3, 6]: < 100 nM | IC50 [1, 7]: < 100 nM | CC50 at 72 h [4]: 10000 to 100000 nM

CCN(CC)C(=O)CN(c1cc(C#CC(C)(C)C)sc1C(=O)O)C(=O)[C@H]1CC[C@H](C)CC1 [Compound 17]
IC50 [3, 8]: < 100 nM | IC50 [1, 9]: < 100 nM | CC50 at 72 h [4]: > 100000 nM

CC[C@@H](C(=O)N1CCOC(C)C1)N(C(=O)C1CCC(C)CC1)c1cc(C#CC(C)(C)C)sc1C(=O)O (some centres unmarked) [Compound 56]
IC50 [3, 8]: < 100 nM | IC50 [1, 9]: < 100 nM | CC50 at 72 h [4]: 10000 to 100000 nM

CC(C)N1CCC[C@H](N(c2cc(C#CC(C)(C)C)sc2C(=O)O)C(=O)[C@H]2CC[C@H](C)CC2)C1=O [Compound 149, (S)-5-(3,3-Dimethylbut-1-ynyl)-3-((trans)-4-methyl-N-(1-isopropyl-2-oxopiperidin-3-yl)cyclohexanecarboxamido)thiophene-2-carboxylic acid]
IC50 [3, 6]: < 100 nM | IC50 [1, 7]: < 100 nM | CC50 at 72 h [4]: 10000 to 100000 nM

CC[C@@H](C(=O)N(C)C)N(c1cc(C#CC(C)(C)C)sc1C(=O)O)C(=O)[C@H]1CC[C@H](C)CC1 [Compound 13]
IC50 [3, 8]: < 100 nM | IC50 [1, 9]: < 100 nM | CC50 at 72 h [4]: > 100000 nM

CC[C@@H](C(=O)N1CC2CC1CO2)N(c1cc(C#CC(C)(C)C)sc1C(=O)O)C(=O)[C@H]1CC[C@H](C)CC1 (some centres unmarked) [Compound 78]
IC50 [3, 8]: < 100 nM | IC50 [1, 9]: < 100 nM | CC50 at 72 h [4]: > 100000 nM
